Reference: BindingDB's records for doi:10.1016/j.bmcl.2010.01.042 (Bristol Myers Squibb, 2010)

Molecular target: Insulin-like growth factor 1 receptor (Homo sapiens) (UniProt P08069)
Assay: Inhibition of IGFR1

Chain of Insulin-like growth factor 1 receptor (Homo sapiens) (P08069 whole entry, looked up): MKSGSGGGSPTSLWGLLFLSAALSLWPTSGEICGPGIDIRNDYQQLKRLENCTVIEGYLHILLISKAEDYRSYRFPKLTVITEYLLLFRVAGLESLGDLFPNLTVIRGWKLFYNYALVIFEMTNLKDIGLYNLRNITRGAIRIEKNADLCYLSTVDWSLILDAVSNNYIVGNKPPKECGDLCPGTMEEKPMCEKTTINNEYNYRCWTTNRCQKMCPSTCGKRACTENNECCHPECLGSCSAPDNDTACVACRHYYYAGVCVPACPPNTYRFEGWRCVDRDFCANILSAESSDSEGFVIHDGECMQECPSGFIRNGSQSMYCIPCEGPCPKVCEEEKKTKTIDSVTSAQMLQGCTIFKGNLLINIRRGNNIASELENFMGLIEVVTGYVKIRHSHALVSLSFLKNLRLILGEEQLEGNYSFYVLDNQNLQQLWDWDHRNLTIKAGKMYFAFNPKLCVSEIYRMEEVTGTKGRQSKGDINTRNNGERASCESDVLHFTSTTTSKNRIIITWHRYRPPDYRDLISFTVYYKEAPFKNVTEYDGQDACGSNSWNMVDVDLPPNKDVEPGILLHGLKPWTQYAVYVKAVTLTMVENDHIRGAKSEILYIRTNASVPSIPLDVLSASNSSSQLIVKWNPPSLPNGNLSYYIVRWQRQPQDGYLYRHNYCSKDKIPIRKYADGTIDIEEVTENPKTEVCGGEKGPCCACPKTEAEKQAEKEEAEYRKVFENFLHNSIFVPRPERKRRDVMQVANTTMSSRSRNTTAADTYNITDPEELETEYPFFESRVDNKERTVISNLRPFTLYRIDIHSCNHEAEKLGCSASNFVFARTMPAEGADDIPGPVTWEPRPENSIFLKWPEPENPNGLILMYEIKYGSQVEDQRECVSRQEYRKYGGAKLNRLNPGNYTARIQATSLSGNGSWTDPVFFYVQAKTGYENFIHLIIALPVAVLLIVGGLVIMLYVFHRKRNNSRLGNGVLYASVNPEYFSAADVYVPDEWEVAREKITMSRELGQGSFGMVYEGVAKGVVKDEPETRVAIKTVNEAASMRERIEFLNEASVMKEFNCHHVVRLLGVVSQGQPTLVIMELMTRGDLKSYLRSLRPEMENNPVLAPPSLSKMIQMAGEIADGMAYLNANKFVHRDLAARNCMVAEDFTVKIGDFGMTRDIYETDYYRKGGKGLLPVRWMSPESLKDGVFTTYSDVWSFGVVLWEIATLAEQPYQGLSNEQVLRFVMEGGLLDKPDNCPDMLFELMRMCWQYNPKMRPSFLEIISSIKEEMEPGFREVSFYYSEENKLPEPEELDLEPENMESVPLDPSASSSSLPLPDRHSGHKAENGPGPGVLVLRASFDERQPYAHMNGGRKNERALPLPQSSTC

IC50: > 50 µM
Compound: O=C(Nc1ccc(F)cc1F)c1cccnc1Nc1ccc(Oc2ccnc3[nH]ccc23)c(F)c1 [2-(4-(1H-pyrrolo[2,3-b]pyridin-4-yloxy)-3-fluorophenylamino)-N-(2,4-difluorophenyl)nicotinamide]
